# Data from patent US20220265657A1, “ADMINISTRATION METHOD AND DOSAGE REGIMEN FOR TREATMENT OF NEURODEGENERATIVE DISEASES USING TRAMETINIB AND MARKERS” (GENUV INC., priority 2019, published 2022).
# Read-outs that look alike come from different tables or passages of the source.
# How the values were obtained:
# 5XFAD mice [1] = experiment: LTP recording (EPSCs) at hippocampal CA1 region; format: in vivo; conditions: 8-month old 5XFAD mice, oral administration
# 5XFAD mice [2] = experiment: Behavioral studies: Y-maze and novel object recognition tests; format: in vivo
# Description: Trametinib treatment: Trametinib (Medchemexpress, Monmouth Junction, N.J.) was micronized and suspended in the vehicle containing 5% mannitol, 1.5% hydroxypropyl methylcellulose and 0.2% sodium lauryl sulfate. For pharmacokinetic analysis, 0.05, 0.2 and 0.8 mg/kg of trametinib were orally administered to 7-week-old normal mice (ICR, n=5 per group) as a single administration. […] For studies on the change in pERK expression in normal mice and whole cell RNA sequencing study, 0.1 mg/kg/day of trametinib (in 4% DMSO+96% corn oil) was orally administered to 6-week old C57BL/6 mice (n=3 per group). Mice were sacrificed after 1, 2, 3, or 4 weeks of administration. 5XFAD mice (male, n=7˜10 per group) were divided into vehicle and trametinib treated groups. 12-month old mice received vehicle or 0.1 mg/kg of trametinib for 1 month by oral gavage once a day (These mice are referred to as “13-month old 5XFAD mice” in the Examples). […] Blood was obtained after completion of treatment.
# SH-SY5Y cells = experiment: Immunocytochemistry of LC3, LAMP1 and lysotracker in SH-SY5Y cells; format: cell-based
# Description: Cell culture: SH-SY5Y neuroblastoma cells were cultured at 37° C., 5% CO2., in Dulbecco's Modified Eagle Medium/Ham's F-12 nutrient mixture (DMEM/F12) (Invitrogen, Carlsbad, Calif.) supplemented with 10% heat-inactivated fetal bovine serum containing 100 units/ml penicillin, 100 μg/ml streptomycin. Primary cortical neuron cultures were derived from embryo day 18 (E18) from ICR mice. The dissociated cells were plated on glass cover slips coated with poly-D-lysine in Neurobasal medium supplemented with 2% B27 (Invitrogen), 100 units/ml penicillin, 100 μg/ml streptomycin, and 2 mM L-glutamine. Primary NSCs from normal mice were isolated from the subventricular zone (SVZ) of 8 week-old C57BL/6 mice brain. NSCs from adult Tg2576 mice brain were obtained from Seoul National University Hospital. […]
# Immunocytochemistry: SH-SY5Y cells or adult NSCs were placed on glass coverslips coated with poly-L-ornithine/laminin or poly-D-lysine, respectively. […] The percentage of coefficient was calculated using the pixels above threshold of fluorescence intensities. […] The fluorescence intensity was observed under a confocal microscopy using a LSM700 microscope (Carl Zeiss). The number of LysoTracker puncta was analyzed with Icy software.
# [3] = system: NSCs from adult Tg2576 mice; experiment: Immunofluorescence staining of NSCs from adult Tg2576 mice; format: cell-based; conditions: 100 nM, 48 hrs
# Description: Cell culture: SH-SY5Y neuroblastoma cells were cultured at 37° C., 5% CO2., in Dulbecco's Modified Eagle Medium/Ham's F-12 nutrient mixture (DMEM/F12) (Invitrogen, Carlsbad, Calif.) supplemented with 10% heat-inactivated fetal bovine serum containing 100 units/ml penicillin, 100 μg/ml streptomycin. Primary cortical neuron cultures were derived from embryo day 18 (E18) from ICR mice. The dissociated cells were plated on glass cover slips coated with poly-D-lysine in Neurobasal medium supplemented with 2% B27 (Invitrogen), 100 units/ml penicillin, 100 μg/ml streptomycin, and 2 mM L-glutamine. Primary NSCs from normal mice were isolated from the subventricular zone (SVZ) of 8 week-old C57BL/6 mice brain. NSCs from adult Tg2576 mice brain were obtained from Seoul National University Hospital. The neurospheres were cultured as previously described (M. Y. Kim, B. S. Moon, K. Y. Choi, Isolation and maintenance of cortical neural progenitor cells in vitro. Methods Mol Biol 1018, 3-10 (2013)). For neurosphere culture from normal mice, the cells were dissociated from brain tissue and grown in N2 medium in 25 cm^2 flasks (SPL, Gyeonggi-do, Korea) in suspension. bFGF (20 ng/ml, Peprotech, Princeton, N.J.) and human EGF (20 ng/ml, Peprotech) were added to the media to allow the cells to form neurospheres. For analyses, NSCs were cultured as a monolayer. For differentiation of NSCs, the neurospheres were dissociated with TrypLE (Invitrogen), plated on 15 μg/ml poly-L-ornithine-(Sigma-Aldrich, St. Louis, Mo.) and 10 μg/ml fibronectin (Gibco)-coated plates, and cultured in bFGF- and EGF-depleted N2 medium for 2 days. For neurosphere culture from Tg2576 mice, the cells were grown in DMEM/F12 supplemented with B27 supplements in 75 cm^2 flasks (SPL) in suspension. bFGF (10 ng/ml) and human EGF (10 ng/ml) were added to the media to allow the cells to form neurospheres. For inducing differentiation and AP expression, the neurospheres were dissociated with pipetting, plated on 15 μg/ml poly-L-ornithine- and 10 μg/ml fibronectin (Gibco)-coated plates, and cultured in bFGF- and EGF-depleted medium for 2 days.
# Immunocytochemistry: SH-SY5Y cells or adult NSCs were placed on glass coverslips coated with poly-L-ornithine/laminin or poly-D-lysine, respectively. After washing three times with PBS for 5 min, cells were fixed in 10% formalin for 15 min at room temperature. The cells were then washed with PBS and permeabilized in 0.1% Triton X-100 for 2 min. Cells were placed in blocking solution containing 5% BSA in PBS for 1 h at room temperature and incubated with anti-active caspase 3 (cell signaling), anti-Aβ (thermo), anti-Tau (Cell signaling), anti-LC3 (Cell signaling) and anti-LAMP1 (Abcam) in blocking buffer for 2 h at room temperature. After washing, cells were incubated with goat anti-rabbit antibody conjugated with Alexa Fluor 488 (Thermo) and/or goat anti-rat antibody conjugated with Alexa Fluor 555 (Thermo) overnight. After washing, cells were incubated with 4′,6-diamidino-2-phenylindole (DAPI) for 5 min. Coverslips were mounted using mounting medium (Biomeda, Foster City, Calif.) and visualized by confocal microscopy using a LSM700 microscope (Carl Zeiss). The percentage of coefficient was calculated using the pixels above threshold of fluorescence intensities. […] The fluorescence intensity was observed under a confocal microscopy using a LSM700 microscope (Carl Zeiss). The number of LysoTracker puncta was analyzed with Icy software.
# 5XFAD mice [4] = conditions: 8-month old 5XFAD mice
structure (smiles),measurement,setting,value
CC(=O)Nc1cccc(-n2c(=O)n(C3CC3)c(=O)c3c(Nc4ccc(I)cc4F)n(C)c(=O)c(C)c32)c1 [trametinib],"long-term potentiation (LTP), EPSC slope",5XFAD mice [1],recovered in the trametinib-orally administered animals to a level almost comparable to that of the wild type control
same,memory formation in Y-maze and novel object recognition tests,5XFAD mice [2],recovery of memory formation
same,co-staining of LC3-LAMP1,SH-SY5Y cells; even in the presence of Aβ1-42 oligomers,increased co-staining of LC3-LAMP1
same,lysotracker-positive acidic puncta,SH-SY5Y cells; in the presence of Aβ1-42 oligomers,increased lysotracker-positive acidic puncta
same,active caspase 3,[3],reduced active caspase 3
same,autophagosome-lysosome fusions in axon-like elongated elements and soma,[3],markedly increased
same,cells with bipolar morphology with elongated neurites,[3],marked increase
same,differentiation of NSCs into neuron-like cells,[3],strongly induced differentiation of NSCs into neuron-like cells
same,expression of autophagosomes and lysosomes (LC3 and LAMP1 staining),[3],markedly increased
same,MBP levels,5XFAD mice [4]; 0.05 mg/kg/day,restored back to levels comparable to that of wild type mice
same,MBP levels,5XFAD mice [4]; 0.1 mg/kg/day,restored back to levels comparable to that of wild type mice
